# Where two headings read alike, the source gives them in different places.
# Columns and labels:
# Format in all cases: in vivo
# Polygonum convolvulus = assay: greenhouse pre-emergence treatment, POLCO; conditions: Fallopia convolvulus, 480 h, 20 DAT, POLCO, Table X1, read-out: % activity, solo application
# Method in brief: (§1)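 Damage rated on 0 to 100 scale (0 = normal growth, 100 = no emergence or total above-ground kill) after 2-4 weeks at species-dependent 10-25° C or 20-35° C. Seeds sown per species in loamy sand, ~3.0% humus, treated right after sowing with aqueous spray of single actives or 10% emulsion-concentrate mixtures, then hooded; additive expectation by Colby.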
# Galium aparine [1] = assay: greenhouse pre-emergence treatment, GALAP; conditions: Galium aparine, 480 h, 20 DAT, GALAP, Table X1, read-out: % activity, solo application
# Method in brief: as §1
# Papaver rhoeas [2] = assay: greenhouse post-emergence treatment, PAPRH; conditions: Papaver rhoeas; for pest or weed control at 125 g/ha / pest or weed control at 250 g/ha / pest or weed control at 500 g/ha: read-out: % activity
# Method in brief: (§2)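 Foliar application to greenhouse-grown plants 3–15 cm tall in humus-containing loamy sand; response assessed on a 0–100 scale after 2–4 weeks, with Colby's E=X+Y−(X·Y/100) as the additive expectation.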
# Helianthus annuus = assay: greenhouse post-emergence treatment, HELAN; conditions: HELAN; for % activity: cinmethylin solo (EC 750 g/l), 21 DAT
# Procedure: The culture containers used were plastic pots containing loamy sand with approximately 3.0% of humus as substrate. The seeds of the test plants were sown separately for each species.
# For the post-emergence treatment, the test plants were grown to a plant height of from 3 to 15 cm, depending on the plant habit, and only then treated with the active compounds which had been suspended or emulsified in water. To this end, the test plants were either sown directly, and grown in the same containers, or they were first grown separately as seedlings and transplanted into the test containers a few days prior to treatment.
# Depending on the species, the plants were kept at 10-25° C. and 20-35° C., respectively.
# The test period extended over 2 to 4 weeks. During this time, the plants were tended and their response to the individual treatments was evaluated.
# Evaluation was carried out using a scale from 0 to 100. 100 means no emergence of the plants, or complete destruction of at least the above-ground parts, and 0 means no damage or normal course of growth. A good herbicidal activity is given at values of at least 70, and very good herbicidal activity is given at values of at least 85.
# The respective stated components A and B, and if appropriate, C were formulated as a 10% by weight strength emulsion concentrate and, with addition of the amount of solvent system, introduced into the spray liquor used for applying the active compound. In the examples, the solvent used was water.
# In the examples below, using the method of S. R. Colby (1967) “Calculating synergistic and antagonistic responses of herbicide combinations”, Weeds 15, p. 22ff., the value E, which is expected if the activity of the individual active compounds is only additive, was calculated. E=X+Y−(X·Y/100) where X=effect in percent using herbicide A at an application rate a; • Y=effect in percent using herbicide B at application rate b; • E=expected effect (in %) of herbicide A+herbicide B at application rates a+b.
# Digitaria sanguinalis = assay: greenhouse post-emergence treatment, DIGSA; conditions: Digitaria sanguinalis, 504 h, DIGSA, 21 DAT, read-out: % activity
# Method in brief: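 Greenhouse test in humus-containing (~3.0%) loamy sand at species-dependent temperatures of 10-25° C. or 20-35° C.; treatments applied in water. Damage rated visually after 2–4 weeks (0 = none, 100 = complete destruction or no emergence).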
# Papaver rhoeas [3] = assay: greenhouse pre-emergence treatment, PAPRH; conditions: 20 DAT
# Method in brief: as §1
# Stellaria media = assay: greenhouse pre-emergence treatment, STEME; conditions: chlorotoluron solo 250 gai/ha, 20 DAT
# Method in brief: as §1
# Brachiaria decumbens = assay: greenhouse pre-emergence treatment, BRADC; conditions: Urochloa decumbens, 480 h, BRADC, chlorotoluron solo 500 gai/ha, 20 DAT
# Method in brief: as §1
# Apera spica-venti [4] = assay: greenhouse pre-emergence treatment, APESV; conditions: 20 DAT
# Method in brief: as §1
# Galium aparine [5] = assay: greenhouse post-emergence treatment, GALAP; conditions: Galium aparine, 480 h, GALAP, 20 DAT
# Method in brief: as §2
# Echinocloa crus-galli = assay: greenhouse post-emergence treatment, ECHCG; conditions: ECHCG, 20 DAT
# Method in brief: as §2
# Apera spica-venti [6] = assay: greenhouse post-emergence treatment, APESV; conditions: APESV, 20 DAT
# Method in brief: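 Each species was grown separately and treated once it reached 3 to 15 cm, using actives suspended or emulsified in water. Plants were kept at 10-25° C. or 20-35° C., depending on species. Damage is a 0–100 rating taken during 2 to 4 weeks.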
# Polygonum aviculare = assay: greenhouse post-emergence treatment, POLAV; conditions: Polygonum aviculare, 480 h, 20 DAT, POLAV
# Method in brief: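 Greenhouse; post-emergence spray at 3–15 cm; aqueous EC formulation; 2–4 weeks; 0–100 visual score.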
compound,measurement,setting,value
Cc1ccccc1CO[C@@H]1C[C@@]2(C(C)C)CC[C@]1(C)O2 (racemic) [cinmethylin],inhibition at 31.25 g/ha,Polygonum convolvulus; 31.25 gai/ha (EC 750 g/l),0%
same,inhibition at 62.5 g/ha,Polygonum convolvulus; 62.5 gai/ha (EC 750 g/l),0%
same,inhibition at 125 g/ha,Polygonum convolvulus; 125 gai/ha (EC 750 g/l),0%
same,inhibition at 250 g/ha,Polygonum convolvulus; 250 gai/ha (EC 750 g/l),0%
same,"% herbicidal activity (weed control, 0-100 scale) at 62.5 g/ha",Galium aparine [1]; 62.5 gai/ha (EC 750 g/l),0%
same,"% herbicidal activity (weed control, 0-100 scale) at 125 g/ha",Galium aparine [1]; 125 gai/ha (EC 750 g/l),20%
same,pest or weed control at 62.5 g/ha,"Papaver rhoeas [2]; 504 h, PAPRH, 21 DAT, solo cinmethylin (EC 750 g/l) 62.5 gai/ha",0%
same,pest or weed control at 125 g/ha,Papaver rhoeas [2]; 504 h,20%
same,pest or weed control at 250 g/ha,Papaver rhoeas [2]; 504 h,20%
same,pest or weed control at 500 g/ha,Papaver rhoeas [2]; 504 h,55%
same,% activity,Helianthus annuus; 62.5 gai/ha,30%
same,% activity,Helianthus annuus; 500 gai/ha,60%
same,pest or weed control at 62.5 g/ha,Digitaria sanguinalis; solo cinmethylin (EC 750 g/l) 62.5 gai/ha,0%
same,pest or weed control at 125 g/ha,Digitaria sanguinalis; solo cinmethylin (EC 750 g/l) 125 gai/ha,15%
same,pest or weed control at 250 g/ha,Digitaria sanguinalis; solo cinmethylin (EC 750 g/l) 250 gai/ha,20%
Cc1ccc(NC(=O)N(C)C)cc1Cl [chlorotoluron],% activity,Papaver rhoeas [3]; chlorotoluron solo 62.5 gai/ha,0%
same,% activity,Papaver rhoeas [3]; chlorotoluron solo 500 gai/ha,90%
same,% activity,Stellaria media,65%
same,pest or weed control at 500 g/ha,Brachiaria decumbens,0%
same,% activity,Apera spica-venti [4]; chlorotoluron solo 62.5 gai/ha,55%
same,% activity,Apera spica-venti [4]; chlorotoluron solo 250 gai/ha,65%
same,% activity,Apera spica-venti [4]; chlorotoluron solo 500 gai/ha,65%
same,pest or weed control at 62.5 g/ha,"Papaver rhoeas [2]; 480 h, PAPRH, chlorotoluron solo 62.5 gai/ha, 20 DAT",0%
same,pest or weed control at 125 g/ha,"Papaver rhoeas [2]; 480 h, PAPRH, chlorotoluron solo 125 gai/ha, 20 DAT",0%
same,pest or weed control at 250 g/ha,"Papaver rhoeas [2]; 480 h, PAPRH, chlorotoluron solo 250 gai/ha, 20 DAT",20%
same,pest or weed control at 500 g/ha,"Papaver rhoeas [2]; 480 h, PAPRH, chlorotoluron solo 500 gai/ha, 20 DAT",25%
same,pest or weed control at 250 g/ha,Galium aparine [5]; chlorotoluron solo 250 gai/ha,65%
same,pest or weed control at 500 g/ha,Galium aparine [5]; chlorotoluron solo 500 gai/ha,70%
same,% activity,Echinocloa crus-galli; chlorotoluron solo 500 gai/ha,65%
same,% activity,Apera spica-venti [6]; chlorotoluron solo 62.5 gai/ha,25%
same,% activity,Apera spica-venti [6]; chlorotoluron solo 125 gai/ha,55%
CCCCCCCCSC(=O)Oc1cc(Cl)nnc1-c1ccccc1 [pyridate],pest or weed control at 112.5 g/ha,"Papaver rhoeas [2]; 480 h, PAPRH, solo pyridate (WP 45%) 112.5 gai/ha, 20 DAT",0%
same,pest or weed control at 225 g/ha,"Papaver rhoeas [2]; 480 h, PAPRH, solo pyridate (WP 45%) 225 gai/ha, 20 DAT",10%
same,pest or weed control at 450 g/ha,"Papaver rhoeas [2]; 480 h, PAPRH, solo pyridate (WP 45%) 450 gai/ha, 20 DAT",50%
same,pest or weed control at 900 g/ha,"Papaver rhoeas [2]; 480 h, PAPRH, solo pyridate (WP 45%) 900 gai/ha, 20 DAT",70%
same,inhibition at 112.5 g/ha,"Papaver rhoeas [2]; 480 h, pyridate solo 112.5 gai/ha, 20 DAT, PAPRH",0%
same,inhibition at 225 g/ha,"Papaver rhoeas [2]; 480 h, pyridate solo 225 gai/ha, 20 DAT, PAPRH",10%
same,inhibition at 450 g/ha,"Papaver rhoeas [2]; 480 h, pyridate solo 450 gai/ha, 20 DAT, PAPRH",50%
same,inhibition at 900 g/ha,"Papaver rhoeas [2]; 480 h, pyridate solo 900 gai/ha, 20 DAT, PAPRH",70%
same,inhibition at 225 g/ha,"Helianthus annuus; Helianthus annuus, 480 h, pyridate solo 225 gai/ha, 20 DAT",60%
same,inhibition at 450 g/ha,"Helianthus annuus; Helianthus annuus, 480 h, pyridate solo 450 gai/ha, 20 DAT",70%
same,pest or weed control at 112.5 g/ha,Galium aparine [5]; solo pyridate (WP 45%) 112.5 gai/ha,40%
same,pest or weed control at 225 g/ha,Galium aparine [5]; solo pyridate (WP 45%) 225 gai/ha,85%
same,inhibition at 112.5 g/ha,Galium aparine [5]; pyridate solo 112.5 gai/ha,40%
same,inhibition at 225 g/ha,Galium aparine [5]; pyridate solo 225 gai/ha,85%
same,inhibition at 225 g/ha,"Echinocloa crus-galli; Echinochloa crus-galli, 480 h, pyridate solo 225 gai/ha",30%
same,% activity,Apera spica-venti [6]; solo pyridate (WP 45%) 450 gai/ha,0%
same,inhibition at 112.5 g/ha,"Apera spica-venti [6]; Apera spica-venti, 480 h, pyridate solo 112.5 gai/ha",0%
same,inhibition at 225 g/ha,"Apera spica-venti [6]; Apera spica-venti, 480 h, pyridate solo 225 gai/ha",0%
same,inhibition at 450 g/ha,"Apera spica-venti [6]; Apera spica-venti, 480 h, pyridate solo 450 gai/ha",0%
same,inhibition at 900 g/ha,"Apera spica-venti [6]; Apera spica-venti, 480 h, pyridate solo 900 gai/ha",30%
same,inhibition at 112.5 g/ha,Polygonum aviculare; pyridate solo 112.5 gai/ha,0%
same,inhibition at 225 g/ha,Polygonum aviculare; pyridate solo 225 gai/ha,20%
same,inhibition at 450 g/ha,Polygonum aviculare; pyridate solo 450 gai/ha,20%
same,inhibition at 900 g/ha,Polygonum aviculare; pyridate solo 900 gai/ha,30%
